Data as given in US20240299400A1, “Transcription Factor GLI1 Inhibitors and Uses Thereof” (University of Connecticut, priority 2023, published 2024).

How the values were obtained:
ASZ001 cells = assay: MTS anti-proliferative assay in ASZ001 cells; assay type: cell-based, murine; conditions: Mus musculus, ASZ001, Ave ± SEM
TGFBR1 = target: T1, TGFBR1 (Homo sapiens, UniProt P36897); assay: LanthaScreen binding assay, TGFBR1; conditions: average of three replicates, read-out: % inhibition of the kinase TGFBR1
T1 construct: purchased ThermoFisher Scientific (Madison, WI, USA), contract service
T1 sequence (P36897 34-503): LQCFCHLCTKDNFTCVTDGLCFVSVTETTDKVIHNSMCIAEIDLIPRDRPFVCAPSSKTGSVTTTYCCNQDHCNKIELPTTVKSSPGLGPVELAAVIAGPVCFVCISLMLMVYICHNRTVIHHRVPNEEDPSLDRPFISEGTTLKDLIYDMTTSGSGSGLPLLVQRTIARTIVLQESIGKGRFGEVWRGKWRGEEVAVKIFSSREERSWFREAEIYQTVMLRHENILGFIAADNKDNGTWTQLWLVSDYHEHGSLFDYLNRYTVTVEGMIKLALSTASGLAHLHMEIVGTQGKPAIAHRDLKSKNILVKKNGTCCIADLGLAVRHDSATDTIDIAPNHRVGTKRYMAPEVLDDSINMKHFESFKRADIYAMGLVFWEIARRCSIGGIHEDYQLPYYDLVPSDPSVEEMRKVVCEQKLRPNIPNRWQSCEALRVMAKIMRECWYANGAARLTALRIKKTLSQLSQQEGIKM
Method: (§1) Kinase screening experiments. Kinase inhibition/binding experiments were performed by ThermoFisher Scientific (Madison, WI, USA) as a contract service, utilizing their default protocols [G. Yernale, A comprehensive review on the biological interest of quinoline and its derivatives. Bioorg. Med. Chem. 32 (2021) 115973]. Briefly, for ZLyte assay, compound in DMSO (100 nL), kinase buffer (2.4 μL), peptide/kinase mixture (5 μL), and ATP solution (2.5 μL) were mixed in a black 384-well plate. Following a 30 s plate shake to mix reagents, the kinase assay mixture was incubated at RT for 60 min. Following addition of the development reagent solution to each well, another 60 min incubation was performed at RT for reaction development. Fluorescent signal was recorded and subsequently analyzed.
(§2) For the LanthaScreen Binding assay, compounds in DMSO (160 nL), kinase buffer (3.84 μL), kinase/antibody mixture (8.0 μL), and tracer (4.0 μL) were mixed in a white 384-well plate. Following a 30 s plate shake to mix the reagents, the kinase assay mixture was incubated at RT for 60 min. Fluorescent signals were recorded and subsequently analyzed.

GSK3B = target: T2, GSK3B (Homo sapiens, UniProt P49841); assay: ZLyte kinase assay, GSK3B; assay type: biochemical; conditions: average of three replicates
T2 construct: purchased ThermoFisher Scientific (Madison, WI, USA), contract service
Method: as §1

CSF1R = target: T3, CSF1R (Homo sapiens, UniProt P07333); assay: ZLyte kinase assay, CSF1R; assay type: biochemical; conditions: average of three replicates
T3 construct: purchased ThermoFisher Scientific (Madison, WI, USA), contract service
Method: as §1

DYRK2 = target: T4, DYRK2 (Homo sapiens, UniProt Q92630); assay: LanthaScreen binding assay, DYRK2; conditions: average of three replicates, read-out: % inhibition of the kinase DYRK2
T4 construct: purchased ThermoFisher Scientific (Madison, WI, USA), contract service
T4 sequence (Q92630 1-601): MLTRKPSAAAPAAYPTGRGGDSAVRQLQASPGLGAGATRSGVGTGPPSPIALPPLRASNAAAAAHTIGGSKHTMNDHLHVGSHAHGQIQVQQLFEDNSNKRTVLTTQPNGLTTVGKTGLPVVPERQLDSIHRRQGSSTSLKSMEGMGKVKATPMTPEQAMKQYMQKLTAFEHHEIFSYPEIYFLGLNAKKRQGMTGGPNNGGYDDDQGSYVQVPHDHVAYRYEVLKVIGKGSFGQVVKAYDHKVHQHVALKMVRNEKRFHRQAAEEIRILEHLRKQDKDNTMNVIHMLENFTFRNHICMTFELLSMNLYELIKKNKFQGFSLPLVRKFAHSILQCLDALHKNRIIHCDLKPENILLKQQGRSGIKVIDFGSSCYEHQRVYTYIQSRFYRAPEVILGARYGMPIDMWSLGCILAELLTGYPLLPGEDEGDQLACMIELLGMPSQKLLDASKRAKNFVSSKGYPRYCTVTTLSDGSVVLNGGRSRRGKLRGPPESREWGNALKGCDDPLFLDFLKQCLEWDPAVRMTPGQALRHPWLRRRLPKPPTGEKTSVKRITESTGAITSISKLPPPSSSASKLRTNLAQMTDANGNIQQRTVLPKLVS
Method: as §1, §2

MAP2K2 = target: T5, MAP2K2 (Homo sapiens, UniProt P36507); assay: ZLyte kinase assay, MAP2K2; assay type: biochemical; conditions: average of three replicates
T5 construct: purchased ThermoFisher Scientific (Madison, WI, USA), contract service
Method: as §1

GLI1-ZFD = target: T6, GLI1-ZFD (Homo sapiens, UniProt P08151); assay: Microscale thermophoresis (MST) binding to GLI1-ZFD
T6 construct: GLI1-ZFD Expression and Purification; made in house
T6 sequence (P08151 234-388 limits assumed): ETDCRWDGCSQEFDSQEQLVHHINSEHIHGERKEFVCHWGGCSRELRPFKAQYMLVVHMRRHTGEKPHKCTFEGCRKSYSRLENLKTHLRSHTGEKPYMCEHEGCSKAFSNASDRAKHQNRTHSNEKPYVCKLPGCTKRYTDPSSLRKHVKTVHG
Procedure, shortened: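 RED-NHS–labeled recombinant GLI1 zinc-finger domain (200 nM) was mixed with compound dilutions (DMSO<5%) in 50 mM HEPES pH 8.3, 100 mM NaCl. Binding was read by microscale thermophoresis on a Monolith NT.115.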

T5 sequence (P36507 whole entry): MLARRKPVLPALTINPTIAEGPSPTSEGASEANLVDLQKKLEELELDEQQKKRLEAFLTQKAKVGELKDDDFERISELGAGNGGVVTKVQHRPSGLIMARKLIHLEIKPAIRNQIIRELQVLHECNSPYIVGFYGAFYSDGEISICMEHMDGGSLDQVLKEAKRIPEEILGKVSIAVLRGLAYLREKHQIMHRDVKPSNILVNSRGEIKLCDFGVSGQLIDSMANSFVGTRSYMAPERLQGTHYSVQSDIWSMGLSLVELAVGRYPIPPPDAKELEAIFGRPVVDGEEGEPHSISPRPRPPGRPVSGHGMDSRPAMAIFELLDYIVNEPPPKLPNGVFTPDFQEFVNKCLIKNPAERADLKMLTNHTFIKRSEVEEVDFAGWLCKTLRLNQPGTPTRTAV
T3 sequence (P07333 20-972): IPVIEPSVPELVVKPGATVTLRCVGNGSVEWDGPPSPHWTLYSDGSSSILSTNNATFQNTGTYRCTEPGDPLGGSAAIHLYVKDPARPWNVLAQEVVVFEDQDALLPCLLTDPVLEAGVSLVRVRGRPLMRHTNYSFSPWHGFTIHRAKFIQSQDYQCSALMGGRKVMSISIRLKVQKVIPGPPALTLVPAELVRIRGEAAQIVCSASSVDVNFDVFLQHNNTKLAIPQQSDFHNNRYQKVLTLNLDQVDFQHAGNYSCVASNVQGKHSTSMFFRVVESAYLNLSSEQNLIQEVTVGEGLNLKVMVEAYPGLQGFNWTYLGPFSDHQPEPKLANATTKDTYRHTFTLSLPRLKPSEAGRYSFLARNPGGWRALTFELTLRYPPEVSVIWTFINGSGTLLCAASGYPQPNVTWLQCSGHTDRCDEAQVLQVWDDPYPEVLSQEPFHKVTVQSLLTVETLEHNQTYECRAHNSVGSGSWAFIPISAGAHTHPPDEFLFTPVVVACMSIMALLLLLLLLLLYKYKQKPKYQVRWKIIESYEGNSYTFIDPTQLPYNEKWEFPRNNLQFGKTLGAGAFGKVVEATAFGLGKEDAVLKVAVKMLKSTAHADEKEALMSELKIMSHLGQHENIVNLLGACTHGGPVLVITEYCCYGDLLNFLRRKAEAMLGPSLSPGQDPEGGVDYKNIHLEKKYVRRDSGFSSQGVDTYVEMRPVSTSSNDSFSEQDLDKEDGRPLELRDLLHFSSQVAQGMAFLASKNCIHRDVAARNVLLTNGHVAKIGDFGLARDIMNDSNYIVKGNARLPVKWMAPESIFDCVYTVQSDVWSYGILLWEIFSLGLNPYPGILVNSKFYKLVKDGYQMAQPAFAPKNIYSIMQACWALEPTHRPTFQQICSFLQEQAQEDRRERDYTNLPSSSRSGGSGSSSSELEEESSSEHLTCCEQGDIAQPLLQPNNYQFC
T2 sequence (P49841 whole entry): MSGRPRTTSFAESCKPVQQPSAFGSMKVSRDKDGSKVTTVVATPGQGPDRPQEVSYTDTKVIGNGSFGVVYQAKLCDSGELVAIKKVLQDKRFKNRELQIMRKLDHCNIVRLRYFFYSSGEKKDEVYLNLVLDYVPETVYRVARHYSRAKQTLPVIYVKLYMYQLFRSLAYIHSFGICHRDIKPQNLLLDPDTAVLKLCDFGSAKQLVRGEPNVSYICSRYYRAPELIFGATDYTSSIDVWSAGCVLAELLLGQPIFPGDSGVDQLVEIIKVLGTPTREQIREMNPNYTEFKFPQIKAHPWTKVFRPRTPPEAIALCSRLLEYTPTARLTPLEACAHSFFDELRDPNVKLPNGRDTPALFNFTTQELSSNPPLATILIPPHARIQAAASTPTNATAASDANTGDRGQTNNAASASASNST

inhibition at 1 µM (TGFBR1) | inhibition at 1 µM (GSK3B) | inhibition at 1 µM (CSF1R) | inhibition at 1 µM (DYRK2) | inhibition at 1 µM (MAP2K2) | binding to GLI1 (in words) (GLI1-ZFD; MST binding assay) | Kd (GLI1-ZFD; Table 5, Ave ± SEM) | Kd (GLI1-ZFD; Table 7, Ave ± SEM) | Structure (SMILES) | GI50 (ASZ001 cells; Table 5, 48 h) | GI50 (ASZ001 cells; Table 7, 48 h)
6% | -1% | 8% | -2% | 12% | does not bind to GLI1 | > 125 µM |  | CCN(CC)c1ccc(C(Nc2ccccn2)c2ccc3ccc(C)nc3c2OC)cc1 (stereo not shown) [Compound 20, N-((4-Diethylaminophenyl)(8-methoxy-2-methylquinolin-7-yl)methyl)pyridin-2-amine] | > 100 µM | 
2% | 1% | 10% | -4% | 14% |  |  | 9.1 ± 1.5 µM | Cc1ccc2ccc(C(Nc3ccccn3)c3ccncc3)c(O)c2n1 (stereo not shown) [Compound 39, 7-((Pyridin-4-yl)(pyridin-2-ylamino)methyl)-2-methylquinolin-8-ol] |  | 3.9 ± 1.2 µM
-2% | 4% | 8% | -1% | 16% |  |  | 8 ± 3.1 µM | Cc1ccc2ccc(C(Nc3ccccn3)c3ccc(N4CCCC4=O)cc3)c(O)c2n1 (stereo not shown) [Compound 48, 7-((4-(2-Oxopyrrolidin-1-yl)phenyl)(pyridin-2-ylamino)methyl)-2-methylquinolin-8-ol] |  | 19.6 ± 3.6 µM
